According to ChEMBL document CHEMBL3991601, “The target landscape of clinical kinase drugs” (Science, 2017):
Activity calls are given as the source filed them. Rule as the data show it, for most assays here: actives have a measured Kd and inactives only a lower limit.

Tests used:
[1] = target: ATP-dependent RNA helicase DDX3X (Homo sapiens, UniProt O00571)
[2] = target: Ribosomal protein S6 kinase alpha-6 (Homo sapiens, UniProt Q9UK32)
[3] = target: Protein-tyrosine kinase 2-beta (Homo sapiens, UniProt Q14289)
Sequence of Protein-tyrosine kinase 2-beta (Q14289 whole entry): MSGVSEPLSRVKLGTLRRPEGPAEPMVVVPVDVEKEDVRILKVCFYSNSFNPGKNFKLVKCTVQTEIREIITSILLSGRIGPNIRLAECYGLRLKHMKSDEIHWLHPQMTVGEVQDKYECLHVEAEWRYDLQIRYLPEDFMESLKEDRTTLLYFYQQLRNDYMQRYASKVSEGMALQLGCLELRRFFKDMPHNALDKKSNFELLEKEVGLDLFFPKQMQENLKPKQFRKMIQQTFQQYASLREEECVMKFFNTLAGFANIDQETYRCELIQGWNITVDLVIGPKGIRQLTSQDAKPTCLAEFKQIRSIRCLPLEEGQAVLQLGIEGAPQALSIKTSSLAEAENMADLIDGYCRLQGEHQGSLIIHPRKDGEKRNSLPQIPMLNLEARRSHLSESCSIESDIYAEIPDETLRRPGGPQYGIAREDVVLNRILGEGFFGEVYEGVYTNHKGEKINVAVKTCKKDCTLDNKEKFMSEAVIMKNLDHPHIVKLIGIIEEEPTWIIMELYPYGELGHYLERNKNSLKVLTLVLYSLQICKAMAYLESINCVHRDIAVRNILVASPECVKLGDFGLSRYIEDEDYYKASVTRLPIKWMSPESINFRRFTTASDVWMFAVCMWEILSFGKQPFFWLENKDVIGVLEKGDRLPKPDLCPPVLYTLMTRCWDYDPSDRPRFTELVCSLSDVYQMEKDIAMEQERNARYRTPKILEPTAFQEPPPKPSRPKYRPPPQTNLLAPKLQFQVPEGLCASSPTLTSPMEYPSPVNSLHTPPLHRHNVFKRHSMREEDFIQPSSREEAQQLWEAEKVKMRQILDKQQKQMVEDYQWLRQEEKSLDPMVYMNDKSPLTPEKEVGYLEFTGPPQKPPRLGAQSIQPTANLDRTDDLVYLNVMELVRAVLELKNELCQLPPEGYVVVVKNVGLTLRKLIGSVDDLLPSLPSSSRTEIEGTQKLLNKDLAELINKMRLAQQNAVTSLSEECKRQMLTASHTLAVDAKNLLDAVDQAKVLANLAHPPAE

[4] = target: T1, MAP kinase-activated protein kinase 5 (Homo sapiens, UniProt Q8IW41)
T1 sequence (Q8IW41 whole entry): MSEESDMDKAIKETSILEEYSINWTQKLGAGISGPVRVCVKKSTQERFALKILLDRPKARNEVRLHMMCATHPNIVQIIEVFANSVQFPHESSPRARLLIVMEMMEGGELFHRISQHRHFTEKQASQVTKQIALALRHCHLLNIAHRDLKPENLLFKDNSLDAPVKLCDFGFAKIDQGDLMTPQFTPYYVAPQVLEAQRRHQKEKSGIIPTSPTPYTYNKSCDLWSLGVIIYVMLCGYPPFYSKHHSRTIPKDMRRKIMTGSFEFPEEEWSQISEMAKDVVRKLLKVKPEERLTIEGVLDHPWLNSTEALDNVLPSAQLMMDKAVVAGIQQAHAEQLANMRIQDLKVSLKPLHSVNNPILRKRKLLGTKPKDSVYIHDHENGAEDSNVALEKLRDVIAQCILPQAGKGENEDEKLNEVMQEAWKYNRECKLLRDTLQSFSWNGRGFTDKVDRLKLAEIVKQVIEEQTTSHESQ

Ephrin type-B receptor 4 = target: T2, Ephrin type-B receptor 4 (Homo sapiens, UniProt P54760)
T2 sequence (P54760 whole entry): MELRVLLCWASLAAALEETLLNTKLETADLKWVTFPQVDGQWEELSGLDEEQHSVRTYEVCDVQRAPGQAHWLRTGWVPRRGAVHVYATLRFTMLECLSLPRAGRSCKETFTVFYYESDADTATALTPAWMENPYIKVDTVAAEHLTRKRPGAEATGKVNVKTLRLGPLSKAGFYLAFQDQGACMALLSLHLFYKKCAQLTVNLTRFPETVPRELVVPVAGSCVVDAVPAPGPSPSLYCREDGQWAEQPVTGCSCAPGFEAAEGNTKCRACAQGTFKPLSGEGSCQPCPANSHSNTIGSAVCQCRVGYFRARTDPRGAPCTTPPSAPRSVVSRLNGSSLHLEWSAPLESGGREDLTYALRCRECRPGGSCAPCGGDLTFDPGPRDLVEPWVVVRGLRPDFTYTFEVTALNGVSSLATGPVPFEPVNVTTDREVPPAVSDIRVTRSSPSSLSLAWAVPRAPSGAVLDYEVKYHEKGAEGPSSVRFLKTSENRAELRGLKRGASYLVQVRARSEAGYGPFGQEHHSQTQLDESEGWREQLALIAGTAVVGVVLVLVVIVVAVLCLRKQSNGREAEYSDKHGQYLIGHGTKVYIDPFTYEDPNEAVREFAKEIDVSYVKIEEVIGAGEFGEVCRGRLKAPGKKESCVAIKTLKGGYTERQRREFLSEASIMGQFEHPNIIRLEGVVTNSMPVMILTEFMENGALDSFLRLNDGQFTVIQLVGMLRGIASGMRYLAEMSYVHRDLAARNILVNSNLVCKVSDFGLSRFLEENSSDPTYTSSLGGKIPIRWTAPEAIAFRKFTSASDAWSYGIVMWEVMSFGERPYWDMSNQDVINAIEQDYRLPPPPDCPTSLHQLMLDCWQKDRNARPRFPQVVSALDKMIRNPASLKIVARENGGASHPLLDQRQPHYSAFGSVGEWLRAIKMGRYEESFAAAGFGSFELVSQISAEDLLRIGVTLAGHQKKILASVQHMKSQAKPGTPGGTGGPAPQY

[5] = target: Tyrosine-protein kinase ABL2 (Homo sapiens, UniProt P42684)
Sequence of Tyrosine-protein kinase ABL2 (P42684 whole entry): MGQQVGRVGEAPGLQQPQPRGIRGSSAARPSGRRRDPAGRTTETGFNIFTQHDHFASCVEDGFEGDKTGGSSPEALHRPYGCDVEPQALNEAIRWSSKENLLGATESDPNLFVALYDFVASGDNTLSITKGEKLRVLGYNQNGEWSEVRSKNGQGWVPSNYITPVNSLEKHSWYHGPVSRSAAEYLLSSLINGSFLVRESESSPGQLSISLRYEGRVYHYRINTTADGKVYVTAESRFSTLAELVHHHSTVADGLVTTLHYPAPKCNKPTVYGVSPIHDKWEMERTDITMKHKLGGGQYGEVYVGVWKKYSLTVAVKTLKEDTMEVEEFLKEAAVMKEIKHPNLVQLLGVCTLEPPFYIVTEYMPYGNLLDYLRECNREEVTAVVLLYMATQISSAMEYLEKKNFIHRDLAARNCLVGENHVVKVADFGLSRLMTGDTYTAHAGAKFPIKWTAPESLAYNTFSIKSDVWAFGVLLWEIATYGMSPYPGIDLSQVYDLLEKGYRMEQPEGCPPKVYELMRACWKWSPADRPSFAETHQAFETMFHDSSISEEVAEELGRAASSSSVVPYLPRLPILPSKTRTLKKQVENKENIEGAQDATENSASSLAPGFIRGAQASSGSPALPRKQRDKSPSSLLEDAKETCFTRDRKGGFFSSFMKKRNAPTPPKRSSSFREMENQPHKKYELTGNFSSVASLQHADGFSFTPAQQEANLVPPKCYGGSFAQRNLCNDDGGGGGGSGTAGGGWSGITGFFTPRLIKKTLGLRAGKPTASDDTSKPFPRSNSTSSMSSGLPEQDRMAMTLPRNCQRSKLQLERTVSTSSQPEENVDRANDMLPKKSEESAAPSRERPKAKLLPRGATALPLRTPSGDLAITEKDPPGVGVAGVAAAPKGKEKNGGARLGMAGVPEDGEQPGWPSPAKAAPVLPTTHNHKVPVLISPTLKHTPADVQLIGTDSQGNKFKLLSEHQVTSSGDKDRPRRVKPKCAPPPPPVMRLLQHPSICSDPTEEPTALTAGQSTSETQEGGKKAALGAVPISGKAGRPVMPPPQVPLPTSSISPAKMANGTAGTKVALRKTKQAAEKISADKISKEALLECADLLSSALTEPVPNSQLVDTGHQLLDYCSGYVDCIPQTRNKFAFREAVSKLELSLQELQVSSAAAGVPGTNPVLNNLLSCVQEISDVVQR

[6] = target: STE20-like serine/threonine-protein kinase (Homo sapiens, UniProt Q9H2G2)
Sequence of STE20-like serine/threonine-protein kinase (Q9H2G2 whole entry): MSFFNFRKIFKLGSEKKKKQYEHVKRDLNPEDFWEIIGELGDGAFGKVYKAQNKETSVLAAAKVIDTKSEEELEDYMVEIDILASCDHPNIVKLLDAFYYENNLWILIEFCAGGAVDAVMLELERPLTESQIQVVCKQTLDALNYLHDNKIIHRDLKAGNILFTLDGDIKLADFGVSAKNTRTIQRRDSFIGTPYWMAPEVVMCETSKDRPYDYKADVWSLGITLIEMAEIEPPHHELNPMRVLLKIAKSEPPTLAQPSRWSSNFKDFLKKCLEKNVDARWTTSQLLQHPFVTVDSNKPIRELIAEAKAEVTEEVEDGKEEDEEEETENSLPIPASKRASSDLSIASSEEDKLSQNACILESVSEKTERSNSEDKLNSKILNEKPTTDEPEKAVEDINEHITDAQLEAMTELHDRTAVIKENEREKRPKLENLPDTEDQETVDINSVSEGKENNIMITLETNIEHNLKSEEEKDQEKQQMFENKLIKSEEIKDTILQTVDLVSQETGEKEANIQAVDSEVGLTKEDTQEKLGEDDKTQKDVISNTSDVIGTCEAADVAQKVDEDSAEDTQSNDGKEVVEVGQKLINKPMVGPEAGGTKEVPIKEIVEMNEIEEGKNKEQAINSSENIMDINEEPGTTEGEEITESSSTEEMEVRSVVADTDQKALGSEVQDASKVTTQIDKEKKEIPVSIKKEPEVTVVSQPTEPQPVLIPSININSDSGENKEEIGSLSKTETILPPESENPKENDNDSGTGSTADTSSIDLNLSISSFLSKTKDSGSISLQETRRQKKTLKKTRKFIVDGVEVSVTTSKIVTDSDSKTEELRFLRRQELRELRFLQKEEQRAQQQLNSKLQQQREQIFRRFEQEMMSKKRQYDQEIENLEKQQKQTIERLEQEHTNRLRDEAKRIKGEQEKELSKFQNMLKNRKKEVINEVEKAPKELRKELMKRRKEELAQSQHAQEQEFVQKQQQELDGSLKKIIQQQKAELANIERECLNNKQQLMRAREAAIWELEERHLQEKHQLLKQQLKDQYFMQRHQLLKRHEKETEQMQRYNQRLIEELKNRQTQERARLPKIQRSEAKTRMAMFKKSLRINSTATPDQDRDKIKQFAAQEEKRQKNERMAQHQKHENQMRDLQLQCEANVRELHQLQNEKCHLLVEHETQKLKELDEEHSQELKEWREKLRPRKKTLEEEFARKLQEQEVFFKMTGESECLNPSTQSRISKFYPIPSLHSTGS

Heme oxygenase 2 = target: T3, Heme oxygenase 2 (Homo sapiens, UniProt P30519)
T3 sequence (P30519 whole entry): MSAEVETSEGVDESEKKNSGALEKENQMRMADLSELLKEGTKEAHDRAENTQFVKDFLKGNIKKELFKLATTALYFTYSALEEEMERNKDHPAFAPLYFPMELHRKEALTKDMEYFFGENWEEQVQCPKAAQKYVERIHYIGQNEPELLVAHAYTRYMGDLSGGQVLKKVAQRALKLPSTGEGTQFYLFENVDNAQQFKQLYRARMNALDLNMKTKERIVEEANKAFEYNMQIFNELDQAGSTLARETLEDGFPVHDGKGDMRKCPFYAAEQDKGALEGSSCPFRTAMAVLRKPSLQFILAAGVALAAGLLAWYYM

Activin receptor type-1 = target: T4, Activin receptor type-1 (Homo sapiens, UniProt Q04771)
T4 sequence (Q04771 whole entry): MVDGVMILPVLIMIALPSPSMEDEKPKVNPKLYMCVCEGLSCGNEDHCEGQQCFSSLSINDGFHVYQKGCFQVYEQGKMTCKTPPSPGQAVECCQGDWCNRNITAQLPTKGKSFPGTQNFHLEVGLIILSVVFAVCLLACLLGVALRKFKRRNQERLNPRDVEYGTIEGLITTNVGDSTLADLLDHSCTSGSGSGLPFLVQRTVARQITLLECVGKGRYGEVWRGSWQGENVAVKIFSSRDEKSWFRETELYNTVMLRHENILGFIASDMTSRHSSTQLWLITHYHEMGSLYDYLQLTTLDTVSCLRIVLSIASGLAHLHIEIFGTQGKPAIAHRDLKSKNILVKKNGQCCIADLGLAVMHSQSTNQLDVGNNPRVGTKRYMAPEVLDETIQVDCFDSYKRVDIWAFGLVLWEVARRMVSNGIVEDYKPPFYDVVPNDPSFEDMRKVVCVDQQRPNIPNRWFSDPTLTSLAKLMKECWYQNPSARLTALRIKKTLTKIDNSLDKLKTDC
Also: in the data inactive means no Kd found up to 30 µM.

Sequence of ATP-dependent RNA helicase DDX3X (O00571 whole entry): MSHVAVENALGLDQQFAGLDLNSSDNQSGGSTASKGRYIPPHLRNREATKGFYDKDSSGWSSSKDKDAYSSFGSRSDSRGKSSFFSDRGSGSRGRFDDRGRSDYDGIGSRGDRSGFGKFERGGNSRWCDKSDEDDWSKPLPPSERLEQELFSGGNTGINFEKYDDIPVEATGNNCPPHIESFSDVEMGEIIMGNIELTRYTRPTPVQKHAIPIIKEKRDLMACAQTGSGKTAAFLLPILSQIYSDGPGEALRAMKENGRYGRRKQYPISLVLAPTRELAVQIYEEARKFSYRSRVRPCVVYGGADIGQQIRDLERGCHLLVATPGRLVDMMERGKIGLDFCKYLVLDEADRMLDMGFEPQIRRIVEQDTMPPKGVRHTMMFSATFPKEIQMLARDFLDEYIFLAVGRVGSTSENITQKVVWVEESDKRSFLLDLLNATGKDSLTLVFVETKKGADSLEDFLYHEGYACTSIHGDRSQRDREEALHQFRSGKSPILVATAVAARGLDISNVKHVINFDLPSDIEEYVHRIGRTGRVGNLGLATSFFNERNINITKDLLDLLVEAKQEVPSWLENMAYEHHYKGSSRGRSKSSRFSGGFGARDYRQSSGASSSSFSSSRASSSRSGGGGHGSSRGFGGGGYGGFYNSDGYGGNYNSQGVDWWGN
Sequence of Ribosomal protein S6 kinase alpha-6 (Q9UK32 whole entry): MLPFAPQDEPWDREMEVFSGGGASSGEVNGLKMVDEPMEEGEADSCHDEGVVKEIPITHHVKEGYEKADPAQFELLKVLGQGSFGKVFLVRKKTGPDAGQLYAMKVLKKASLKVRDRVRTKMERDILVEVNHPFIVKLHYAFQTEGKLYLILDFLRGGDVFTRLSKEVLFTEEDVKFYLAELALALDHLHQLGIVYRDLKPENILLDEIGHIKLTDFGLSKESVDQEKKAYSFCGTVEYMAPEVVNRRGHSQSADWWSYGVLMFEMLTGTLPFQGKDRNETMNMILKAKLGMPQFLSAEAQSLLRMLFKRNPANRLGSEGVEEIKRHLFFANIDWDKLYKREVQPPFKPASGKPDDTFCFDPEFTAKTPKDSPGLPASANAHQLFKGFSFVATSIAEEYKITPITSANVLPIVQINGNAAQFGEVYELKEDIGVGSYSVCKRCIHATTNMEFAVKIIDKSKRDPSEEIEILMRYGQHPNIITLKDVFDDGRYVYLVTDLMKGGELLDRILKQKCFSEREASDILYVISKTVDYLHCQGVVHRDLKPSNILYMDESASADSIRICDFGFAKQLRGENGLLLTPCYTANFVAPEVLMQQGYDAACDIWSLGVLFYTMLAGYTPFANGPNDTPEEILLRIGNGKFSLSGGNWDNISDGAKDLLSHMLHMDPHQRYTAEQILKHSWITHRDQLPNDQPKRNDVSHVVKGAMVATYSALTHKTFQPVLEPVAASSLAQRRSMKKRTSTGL

Row | SMILES | Kd [1] | Kd [2] | Kd [3] | Kd [4] | Kd (Ephrin type-B receptor 4) | Kd [5] | Kd [6] | Kd (Heme oxygenase 2) | Kd (Activin receptor type-1)
1 | COC(=O)N[C@@H](C)CNc1nccc(-c2cn(C(C)C)nc2-c2cc(Cl)cc(NS(C)(=O)=O)c2F)n1 [ENCORAFENIB] | > 30 µM (inactive) | > 30 µM (inactive) | > 30 µM (inactive) | > 30 µM (inactive) | > 30 µM (inactive) | > 30 µM (inactive) | > 30 µM (inactive) | > 30 µM (inactive) | > 30 µM (inactive)
2 | CCS(=O)(=O)N1CC(CC#N)(n2cc(-c3ncnc4[nH]ccc34)cn2)C1 [BARICITINIB] | > 30 µM (inactive) | > 30 µM (inactive) | > 30 µM (inactive) | > 30 µM (inactive) | > 30 µM (inactive) | > 30 µM (inactive) | > 30 µM (inactive) | > 30 µM (inactive) | > 30 µM (inactive)
3 | Cc1c(F)cc(C(=O)NC2CC2)cc1-c1ccc(C(=O)NCC(C)(C)C)cn1 [LOSMAPIMOD] | > 30 µM (inactive) | > 30 µM (inactive) | > 30 µM (inactive) | > 30 µM (inactive) | > 30 µM (inactive) | > 30 µM (inactive) | > 30 µM (inactive) | > 30 µM (inactive) | > 30 µM (inactive)
4 | CCN1CCN(Cc2ccc(-c3cc4c(N[C@H](C)c5ccccc5)ncnc4[nH]3)cc2)CC1 [AEE-788] | > 30 µM (inactive) | > 30 µM (inactive) | > 30 µM (inactive) | > 30 µM (inactive) | 26.4 µM (active) | 14.9 µM (active) | 99.2 µM (active) | > 30 µM (inactive) | 16.1 µM (active)
5 | CC(=O)Nc1cccc(-n2c(=O)n(C3CC3)c(=O)c3c(Nc4ccc(I)cc4F)n(C)c(=O)c(C)c32)c1 [TRAMETINIB] | > 30 µM (inactive) | > 30 µM (inactive) | > 30 µM (inactive) | > 30 µM (inactive) | > 30 µM (inactive) | > 30 µM (inactive) | > 30 µM (inactive) | > 30 µM (inactive) | > 30 µM (inactive)
6 | O=C(O)[C@]1(Cc2cccc(Nc3nccs3)n2)CC[C@@H](Oc2cccc(Cl)c2F)CC1 [MK-5108] | > 30 µM (inactive) | > 30 µM (inactive) | 0.343 µM (active) | > 30 µM (inactive) | > 30 µM (inactive) | 0.077 µM (active) | > 30 µM (inactive) | > 30 µM (inactive) | 0.121 µM (active)
7 | C1=C/COCc2cc(ccc2OCCN2CCCC2)Nc2nccc(n2)-c2cccc(c2)COC/1 [PACRITINIB] | > 30 µM (inactive) | > 30 µM (inactive) | > 30 µM (inactive) | > 30 µM (inactive) | > 30 µM (inactive) | > 30 µM (inactive) | > 30 µM (inactive) | > 30 µM (inactive) | 0.022 µM (active)
8 | N[C@@H]1CCCN(c2c(/C=C3\SC(=O)NC3=O)cccc2-c2ccccc2)C1 | > 30 µM (inactive) | > 30 µM (inactive) | > 30 µM (inactive) | > 30 µM (inactive) | > 30 µM (inactive) | > 30 µM (inactive) | > 30 µM (inactive) | > 30 µM (inactive) | > 30 µM (inactive)
9 | O=C(Nc1ccc(-c2ccnc(Nc3ccc(N4CCOCC4)cc3)n2)cc1)C1CCCN1 (stereo unspecified) [XL-019] | > 30 µM (inactive) | > 30 µM (inactive) | > 30 µM (inactive) | > 30 µM (inactive) | > 30 µM (inactive) | > 30 µM (inactive) | > 30 µM (inactive) | > 30 µM (inactive) | > 30 µM (inactive)
10 | O=C(c1ccc(F)c(F)c1Nc1ccc(I)cc1F)N1CC(O)([C@@H]2CCCCN2)C1 [COBIMETINIB] | > 30 µM (inactive) | > 30 µM (inactive) | > 30 µM (inactive) | > 30 µM (inactive) | > 30 µM (inactive) | > 30 µM (inactive) | > 30 µM (inactive) | > 30 µM (inactive) | > 30 µM (inactive)
11 | C[C@@H]1CN(Cc2ccc(F)cc2)[C@@H](C)CN1C(=O)c1cc2c(C(=O)C(=O)N(C)C)cn(C)c2cc1Cl [TALMAPIMOD] | > 30 µM (inactive) | > 30 µM (inactive) | > 30 µM (inactive) | > 30 µM (inactive) | > 30 µM (inactive) | > 30 µM (inactive) | > 30 µM (inactive) | > 30 µM (inactive) | > 30 µM (inactive)
12 | Cc1cc(-c2cc(O)ccc2Cl)cc2nnc(Nc3ccc(OCCN4CCCC4)cc3)nc12 | > 30 µM (inactive) | > 30 µM (inactive) | > 30 µM (inactive) | > 30 µM (inactive) | 0.0009 µM (active) | 0.001 µM (active) | > 30 µM (inactive) | > 30 µM (inactive) | > 30 µM (inactive)
13 | COc1cc(CCc2cc(NC(=O)c3ccc(N4C[C@@H](C)N[C@@H](C)C4)cc3)n[nH]2)cc(OC)c1 [AZD-4547] | > 30 µM (inactive) | > 30 µM (inactive) | > 30 µM (inactive) | > 30 µM (inactive) | > 30 µM (inactive) | > 30 µM (inactive) | > 30 µM (inactive) | > 30 µM (inactive) | > 30 µM (inactive)
14 | Cc1cc([C@@H](C)Nc2ccccc2C(=O)O)c2nc(N3CCOCC3)cc(=O)n2c1 [AZD-6482] | > 30 µM (inactive) | > 30 µM (inactive) | > 30 µM (inactive) | > 30 µM (inactive) | > 30 µM (inactive) | > 30 µM (inactive) | > 30 µM (inactive) | > 30 µM (inactive) | > 30 µM (inactive)
